In brackets after ≈: the same amount, converted by molar mass. Where only a bound is given, the exact number is not on record here.

Data set [1] addresses Vascular endothelial growth factor receptor 2 (Homo sapiens, UniProt P35968). Description: Inhibition of His-tagged human VEGFR2 expressed in Sf9 cells.
Data set [2] is described as follows: Inhibition of PDGFR.
The target in data set [3] is T1, Fibroblast growth factor receptor 1 (Homo sapiens, UniProt P11362). Description: Inhibition of FGFR1.
The target in a further data set is Angiopoietin-1 receptor (Homo sapiens, UniProt Q02763). Description: Inhibition of Tie-2.
Data set [4] concerns the target T1, Fibroblast growth factor receptor 1. Description: Inhibition of His-tagged human FGFR1 expressed in Sf9 cells.
A short description of data set [5]: Inhibition of VEGFR.
Data set [6] can be described thus: Solubility of the compound at pH 6.8. The data set is classed as physicochemical. The settings on record: buffer.
In data set [7] the test system is HUVEC. Description: Antiproliferative activity against HUVEC cells assessed as inhibition of FGF-stimulated proliferation after 5 days by WST-8 assay. Particulars: Homo sapiens, 120 h.
Data set [8] deals with HUVEC. Put plainly: Antiproliferative activity against HUVEC cells assessed as inhibition of VEGF-stimulated proliferation after 5 days by WST-8 assay. Particulars: Homo sapiens, 120 h. (Tetrazolium dyes change colour on reduction, which living cells bring about.)

T1 sequence (P11362 whole entry): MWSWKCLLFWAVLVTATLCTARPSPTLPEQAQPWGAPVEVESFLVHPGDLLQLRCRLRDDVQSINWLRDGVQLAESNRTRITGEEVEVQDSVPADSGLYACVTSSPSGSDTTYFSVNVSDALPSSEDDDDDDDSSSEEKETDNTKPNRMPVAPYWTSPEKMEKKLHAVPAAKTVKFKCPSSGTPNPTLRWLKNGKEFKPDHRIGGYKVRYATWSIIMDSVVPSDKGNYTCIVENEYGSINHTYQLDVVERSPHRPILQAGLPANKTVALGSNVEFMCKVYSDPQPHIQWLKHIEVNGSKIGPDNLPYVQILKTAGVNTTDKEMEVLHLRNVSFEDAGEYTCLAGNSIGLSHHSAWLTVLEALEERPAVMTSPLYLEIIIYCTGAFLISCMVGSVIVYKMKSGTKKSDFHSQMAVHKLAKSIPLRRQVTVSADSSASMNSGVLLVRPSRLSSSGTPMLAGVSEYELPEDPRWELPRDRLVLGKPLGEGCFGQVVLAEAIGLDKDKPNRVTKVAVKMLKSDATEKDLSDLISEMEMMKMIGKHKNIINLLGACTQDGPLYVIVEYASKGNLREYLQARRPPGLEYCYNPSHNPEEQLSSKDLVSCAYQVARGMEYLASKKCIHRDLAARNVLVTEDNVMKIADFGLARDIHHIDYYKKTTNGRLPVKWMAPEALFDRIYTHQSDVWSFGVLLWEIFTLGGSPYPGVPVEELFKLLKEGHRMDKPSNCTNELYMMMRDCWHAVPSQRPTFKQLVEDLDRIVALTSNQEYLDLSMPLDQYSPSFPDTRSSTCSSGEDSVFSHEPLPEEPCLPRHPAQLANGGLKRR
Sequence of Vascular endothelial growth factor receptor 2 (P35968 whole entry): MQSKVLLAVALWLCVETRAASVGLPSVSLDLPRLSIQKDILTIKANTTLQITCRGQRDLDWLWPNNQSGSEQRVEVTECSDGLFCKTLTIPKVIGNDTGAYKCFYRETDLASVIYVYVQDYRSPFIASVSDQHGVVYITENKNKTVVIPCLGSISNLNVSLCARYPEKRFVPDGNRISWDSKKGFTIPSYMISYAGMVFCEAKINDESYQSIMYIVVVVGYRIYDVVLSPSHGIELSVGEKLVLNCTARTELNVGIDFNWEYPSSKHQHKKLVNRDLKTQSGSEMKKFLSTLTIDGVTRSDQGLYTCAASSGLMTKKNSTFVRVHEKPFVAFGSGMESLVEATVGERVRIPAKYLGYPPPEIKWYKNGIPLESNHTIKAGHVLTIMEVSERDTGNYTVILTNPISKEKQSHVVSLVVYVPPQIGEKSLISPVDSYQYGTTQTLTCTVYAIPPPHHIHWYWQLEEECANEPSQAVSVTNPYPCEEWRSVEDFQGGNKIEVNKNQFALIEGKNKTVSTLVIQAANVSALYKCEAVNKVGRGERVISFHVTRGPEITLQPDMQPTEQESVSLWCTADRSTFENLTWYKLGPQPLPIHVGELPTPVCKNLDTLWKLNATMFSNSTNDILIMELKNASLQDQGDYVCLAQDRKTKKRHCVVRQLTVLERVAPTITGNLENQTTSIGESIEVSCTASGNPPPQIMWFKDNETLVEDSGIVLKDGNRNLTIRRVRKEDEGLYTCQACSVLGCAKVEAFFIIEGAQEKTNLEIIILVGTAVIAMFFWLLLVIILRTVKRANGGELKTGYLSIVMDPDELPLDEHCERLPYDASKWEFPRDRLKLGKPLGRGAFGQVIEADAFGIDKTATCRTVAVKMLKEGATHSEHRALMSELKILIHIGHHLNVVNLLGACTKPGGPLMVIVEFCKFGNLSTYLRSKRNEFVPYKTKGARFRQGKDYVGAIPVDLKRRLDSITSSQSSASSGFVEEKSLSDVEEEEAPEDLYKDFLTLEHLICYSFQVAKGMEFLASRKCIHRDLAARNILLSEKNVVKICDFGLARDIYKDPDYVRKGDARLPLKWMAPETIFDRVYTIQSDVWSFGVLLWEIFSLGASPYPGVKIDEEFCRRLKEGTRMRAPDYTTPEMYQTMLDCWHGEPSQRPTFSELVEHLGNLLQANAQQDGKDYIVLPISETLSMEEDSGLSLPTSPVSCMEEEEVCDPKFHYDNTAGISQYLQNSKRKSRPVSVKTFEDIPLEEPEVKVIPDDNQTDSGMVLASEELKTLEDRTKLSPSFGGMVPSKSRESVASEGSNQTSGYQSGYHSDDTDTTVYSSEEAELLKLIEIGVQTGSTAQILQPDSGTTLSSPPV
Sequence of Angiopoietin-1 receptor (Q02763 whole entry): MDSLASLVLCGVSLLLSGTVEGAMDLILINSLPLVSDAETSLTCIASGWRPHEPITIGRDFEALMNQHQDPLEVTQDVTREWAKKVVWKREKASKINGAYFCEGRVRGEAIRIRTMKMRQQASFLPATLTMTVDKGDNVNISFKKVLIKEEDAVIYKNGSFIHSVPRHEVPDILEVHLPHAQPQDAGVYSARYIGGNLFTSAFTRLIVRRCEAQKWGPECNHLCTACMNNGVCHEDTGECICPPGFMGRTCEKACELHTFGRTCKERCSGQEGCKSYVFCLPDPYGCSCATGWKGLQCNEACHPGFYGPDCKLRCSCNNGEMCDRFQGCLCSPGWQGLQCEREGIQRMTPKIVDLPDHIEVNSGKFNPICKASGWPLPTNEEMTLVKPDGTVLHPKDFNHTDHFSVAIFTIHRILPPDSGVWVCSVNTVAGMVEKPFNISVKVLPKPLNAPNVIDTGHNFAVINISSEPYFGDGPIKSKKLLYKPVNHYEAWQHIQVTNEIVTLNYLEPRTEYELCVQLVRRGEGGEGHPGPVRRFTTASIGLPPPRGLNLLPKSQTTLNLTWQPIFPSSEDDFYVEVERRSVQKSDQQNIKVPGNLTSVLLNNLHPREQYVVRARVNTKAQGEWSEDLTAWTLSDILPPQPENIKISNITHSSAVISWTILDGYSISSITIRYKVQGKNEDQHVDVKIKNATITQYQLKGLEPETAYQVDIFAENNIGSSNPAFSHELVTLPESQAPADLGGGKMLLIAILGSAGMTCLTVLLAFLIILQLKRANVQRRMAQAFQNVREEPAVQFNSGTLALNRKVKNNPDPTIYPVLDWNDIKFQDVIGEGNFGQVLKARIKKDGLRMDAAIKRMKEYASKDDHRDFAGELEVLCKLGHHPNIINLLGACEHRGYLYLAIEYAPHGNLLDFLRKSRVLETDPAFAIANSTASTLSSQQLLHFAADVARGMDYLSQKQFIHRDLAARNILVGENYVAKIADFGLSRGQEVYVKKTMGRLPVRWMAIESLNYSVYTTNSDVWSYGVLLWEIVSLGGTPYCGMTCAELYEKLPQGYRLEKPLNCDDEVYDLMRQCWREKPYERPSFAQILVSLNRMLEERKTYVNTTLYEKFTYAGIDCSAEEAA

Broadly, the IC50 is the concentration that gives 50% inhibition. In data set [1], `Cn1ccc2ncnc(Oc3ccc(NC(=O)Nc4cc(C(C)(C)C)on4)c(Cl)c3)c21` returned a concentration for half-maximal inhibition (IC50) of 8.9 nM.

Take `O=C(Nc1cccc(C(F)(F)F)c1)Nc1ccc(Oc2ncnc3ccn(CCOCCO)c23)cc1Cl`: in [1], 2.7 nM corresponded to half-maximal inhibition (IC50).

As to `COCCn1ccc2ncnc(Oc3ccc(NC(=O)Nc4cccc(C(F)(F)F)c4)c(Cl)c3)c21`, the IC50 in data set [1] turned out to be 9 nM.

As for `O=C(Nc1cccc(C(F)(F)F)c1)Nc1ccc(Oc2ncnc3ccn(CCO)c23)cc1Cl`, in data set [1], it took 4 nM to reach half-maximal inhibition (IC50).

`COCc1cc2ncnc(Oc3ccc(NC(=O)Nc4cccc(C(F)(F)F)c4)c(Cl)c3)c2n1C`: the IC50 in data set [1] is 14 nM.

For the molecule `Cn1c(C(C)(C)O)cc2ncnc(Oc3ccc(NC(=O)Nc4cccc(C(F)(F)F)c4)c(Cl)c3)c21`, 18 nM corresponded to half-maximal inhibition in data set [1] (IC50).

Turning to `Cn1ccc2ncnc(Oc3ccc(NC(=O)Nc4cccc(C(F)(F)F)c4)c(F)c3)c21`, the 50% inhibitory concentration (IC50) in data set [2] is < 100 nM; in data set [3], > 10000 nM; at Angiopoietin-1 receptor it was < 100 nM; in data set [4], > 10000 nM; in data set [5] it was < 100 nM.

Regarding `Cn1ccc2ncnc(Oc3ccc(NC(=O)Nc4ccccn4)c(Cl)c3)c21`, the figures for the IC50 in data set [1] and in [4] were 210 nM and > 10000 nM, respectively.

`Cn1ccc2ncnc(Oc3ccc(NC(=O)Nc4cccnc4)c(Cl)c3)c21`: the figures for the half-inhibitory concentration (IC50) in [1] and in data set [4] were 230 nM and > 10000 nM, respectively.

A word on the solubility: it is how much of the substance goes into solution per volume. Read a low solubility as a poorly soluble substance. `Cn1ccc2ncnc(Oc3ccc(NC(=O)Nc4cccc(C(F)(F)F)c4)c(Cl)c3)c21` registered a solubility in [6] of 0.09 µg/mL (≈ 0.195 µM). Further, the concentration for half-maximal inhibition (IC50) in the data set on HUVEC [7] was determined as 230 nM.

As for `Cn1ccc2ncnc(Oc3ccc(NC(=O)Nc4ccncc4)c(Cl)c3)c21`, the half-inhibitory concentration (IC50) in data set [1] was 650 nM; in data set [4], > 10000 nM.

In data set [1], `Cn1ccc2ncnc(Oc3ccc(NC(=O)Nc4cc(C(F)(F)F)ccn4)c(Cl)c3)c21` yielded an IC50 of 2.7 nM.

`Cn1ccc2ncnc(Oc3ccc(NC(=O)Nc4cncc(C(F)(F)F)c4)c(Cl)c3)c21` came in with an IC50 in data set [1] of 2.9 nM.

Molecule `Cn1ccc2ncnc(Oc3ccc(NC(=O)Nc4ccnc(C(F)(F)F)c4)c(Cl)c3)c21` returned a half-maximal inhibitory concentration (IC50) in [1] of 3.8 nM.

With `Cn1ccc2ncnc(Oc3ccc(NC(=O)Nc4cnn(CC(F)(F)F)c4)c(Cl)c3)c21`, in data set [1], the half-inhibitory concentration (IC50) turned out to be 4 nM.

The molecule `Cn1ccc2ncnc(Oc3ccc(NC(=O)Nc4cnn(C(C)(C)C)c4)c(Cl)c3)c21` came in with a 50% inhibitory concentration (IC50) in data set [1] of 7.6 nM.

On to `Cn1nc(C(C)(C)C)cc1NC(=O)Nc1ccc(Oc2ncnc3ccn(C)c23)cc1Cl`, for which it took 19 nM to reach half-maximal inhibition in [1] (IC50).

Turning to `COc1ccc(NC(=O)Nc2ccc(Oc3ncnc4ccn(C)c34)cc2Cl)cc1C(F)(F)F`, the 50% inhibitory concentration (IC50) in data set [1] was found to be 9.4 nM.

`Cn1ccc2ncnc(Oc3ccc(NC(=O)Nc4ccc(N5CCOCC5)c(C(F)(F)F)c4)c(Cl)c3)c21` returned an IC50 in data set [1] of 61 nM.

`Cn1ccc2ncnc(Oc3ccc(NC(=O)Nc4ccc(CN5CCOCC5)c(C(F)(F)F)c4)c(Cl)c3)c21`: the IC50 in [1] is 19 nM.

As for `CN1CCN(Cc2ccc(NC(=O)Nc3ccc(Oc4ncnc5ccn(C)c45)cc3Cl)cc2C(F)(F)F)CC1`, the figures for the IC50 (in data set [1]; in the data set with HUVEC [7]; in the data set with HUVEC [8]) were 9.3 nM, 20 nM and 38 nM, respectively. Moreover, the solubility in data set [6] came out at 19 µg/mL (≈ 33.1 µM).

As to `CN1CCC(Oc2ccc(NC(=O)Nc3ccc(Oc4ncnc5ccn(C)c45)cc3Cl)cc2C(F)(F)F)CC1`, inhibition in data set [1] was half-maximal at 12 nM (IC50).

`COc1cc(NC(=O)Nc2ccc(Oc3ncnc4ccn(C)c34)cc2Cl)cc(C(F)(F)F)c1` had an IC50 in [1] of 20 nM.

In [1], `Cn1ccc2ncnc(Oc3ccc(NC(=O)Nc4cc(N5CCOCC5)cc(C(F)(F)F)c4)c(Cl)c3)c21` yielded an IC50 of 60 nM.

In data set [1], `Cn1ccc2ncnc(Oc3ccc(NC(=O)Nc4cc(CN5CCOCC5)cc(C(F)(F)F)c4)c(Cl)c3)c21` yielded an IC50 of 23 nM.

On to `CN1CCN(Cc2cc(NC(=O)Nc3ccc(Oc4ncnc5ccn(C)c45)cc3Cl)cc(C(F)(F)F)c2)CC1`, for which the IC50 in [1] is 11 nM.

In [1], `Cn1c(CO)cc2ncnc(Oc3ccc(NC(=O)Nc4cccc(C(F)(F)F)c4)c(Cl)c3)c21` had a concentration for half-maximal inhibition (IC50) of 9.7 nM.

These data come from ChEMBL document CHEMBL1250549, “N-phenyl-N'-[4-(5H-pyrrolo[3,2-d]pyrimidin-4-yloxy)phenyl]ureas as novel inhibitors of VEGFR and FGFR kinases” (Bioorg Med Chem, 2010).
